Measured values from EPA's ToxValDB 9.5 (doi:10.2903/j.efsa.2010.1445).

Assays:
Pimephales promelas = settings: chronic/long-term; duration: 33 days
Tagia sp. = settings: acute; mortality
Oryctolagus sp. = settings: developmental; development
[1] = chronic/long-term; development
Apis mellifera = settings: acute; duration: 48 hours; dermal; mortality
Typhlodromus pyri = settings: not reported; mortality
Coturnix coturnix = settings: for LD50: acute, oral, mortality
Oncorhynchus mykiss = settings: acute; duration: 96 hours; mortality
Rattus norvegicus = settings: acute; oral; mortality
Lepomis macrochirus = settings: acute; duration: 96 hours; mortality
Daphnia magna = settings: chronic/long-term; duration: 21 days
Anatidae = settings: for LD50: oral, mortality

N#CCNC(=O)c1cnccc1C(F)(F)F [Flonicamid]
LC50 (Bibionidae; acute, duration: 48 hours, mortality): > 200 µg/mL | NOEC (Bibionidae; chronic/long-term, duration: 28 days): 25 mg/L | NOEC (Pimephales promelas): 10 mg/L | LC50 (Tagia sp.): > 1000 mg/kg | NOAEL (Oryctolagus sp.): 2.5 mg/kg-day | NOEL [1]: 25 mg/kg-day | LD50 (Apis mellifera): > 51.1 µg/piece | LEL (Typhlodromus pyri): 80 g/ha | LD50 (Coturnix coturnix; M/F): > 2000 mg/kg | LD50 (Coturnix coturnix; diet): > 411 mg/kg-day | NOEL (Coturnix coturnix; reproduction developmental): 90 mg/kg-day | LC50 (Oncorhynchus mykiss): > 100 µg/mL | LD50 (Rattus norvegicus): 884 mg/kg | LC50 (Lepomis macrochirus): > 100 µg/mL | NOEC (Daphnia magna): 3.1 mg/L | LD50 (Anatidae; acute, unspecified, F): 1590 mg/kg | LD50 (Anatidae; acute, unspecified, M): 2620 mg/kg | NOEL (Anatidae; reproductive): 59 mg/kg-day | LD50 (Anatidae; short-term, feed): > 302 mg/kg-day
